# Test results reported in patent US20250154138A1, “Small Molecule IL-17A Modulators” (BeiGene, Ltd., priority 2022, published 2025).
# Tests used:
# [1] = molecular target: human IL-17A / human IL-17RA (Homo sapiens (Human), UniProt Q16552); test: Human IL-17A biochemical assay (HTRF, blocking of IL-17A binding to IL-17RA); conditions: 0.4 nM IL-17A, 0.3 nM IL-17RA, max compound concentration 10 uM
# Outline: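 Compounds (10-point, 2.7-fold dilution from 10 uM) preincubated 3 h at RT with 0.4 nM human IL-17A, followed by 1 h with 0.3 nM IL-17RA and 1 h with Tb-cryptate/XL665 antibodies; buffer 20 mM HEPES pH 7.5, 0.1% BSA. Inhibition derived from HTRF fluorescence ratio; IC50 by four-parameter logistic fitting.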
# [2] = system: IL-17-induced GROα secretion from HT-29 cells; test: GROα release assay in human colorectal adenocarcinoma epithelial cell (HT-29, ELISA); assay type: cell-based; conditions: Homo sapiens, HT-29, 48 h, 10 ng/mL IL-17A, highest concentration 10 μM, read-out: Cellular assay HT29 cell/CXCL1 IC50
# Outline: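 IC50 values come from four-parameter fits of GROα levels, quantified by ELISA (450 nm, standard curve) in supernatants. Compounds, 4-fold serially diluted from 10 μM, were mixed 15 min with IL-17A (10 ng/mL final) before 48 h incubation with HT-29 cells at 37°C.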
# Sequence of human IL-17A / human IL-17RA (Q16552 24-155): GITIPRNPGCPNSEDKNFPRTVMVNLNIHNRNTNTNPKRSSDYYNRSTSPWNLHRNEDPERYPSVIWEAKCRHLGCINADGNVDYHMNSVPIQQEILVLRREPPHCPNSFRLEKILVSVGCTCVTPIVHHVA
SMILES,IC50 [1],IC50 [2]
"CNC(=O)C1(N2C[C@@H](C(C)C)NC2=O)CCc2cc3[nH]c([C@@H](NC(=O)c4ccnn4C)C4CCCCC4)nc3cc2C1 (stereo partly drawn) [Example 123, 2-((S)-cyclohexyl(1-methyl-1H-pyrazole-5-carboxamido)methyl)-6-((R)-4-isopropyl-2-oxoimidazolidin-1-yl)-N-methyl-5,6,7,8-tetrahydro-1H-naphtho[2,3-d]imidazole-6-carboxamide]",441 nM,61.6 nM
"CC(C)CNC(=O)C1(N2C[C@@H](C(C)C)NC2=O)Cc2ccc(NC(=O)[C@@H](NC(=O)c3ccnn3C)C3CCCCC3)cc2C1 (stereo partly drawn) [Example 124, N-((1S)-1-cyclohexyl-2-((2-(isobutylcarbamoyl)-2-((R)-4-isopropyl-2-oxoimidazolidin-1-yl)-2,3-dihydro-1H-inden-5-yl)amino)-2-oxoethyl)-1-methyl-1H-pyrazole-5-carboxamide]",19 nM,32.5 nM
"CCC1CCC(C(NC(=O)c2ccnn2C)C(=O)Nc2ccc3c(c2)CC(C(=O)NC)(N2CC4(CCC4)CNC2=O)C3)CC1 (stereo not shown) [Example 125, N-(1-(4-ethylcyclohexyl)-2-((2-(methylcarbamoyl)-2-(7-oxo-6,8-diazaspiro[3.5]nonan-6-yl)-2,3-dihydro-1H-inden-5-yl)amino)-2-oxoethyl)-1-methyl-1H-pyrazole-5-carboxamide]",5.6 nM,25.8 nM
"CNC(=O)C1(N2C[C@@H](C(C)C)NC2=O)Cc2ccc(NC(=O)[C@@H](NC(=O)c3ccnn3CCO)C3CCCCC3)cc2C1 (stereo partly drawn) [Example 126, N-((1S)-1-cyclohexyl-2-((2-((R)-4-isopropyl-2-oxoimidazolidin-1-yl)-2-(methylcarbamoyl)-2,3-dihydro-1H-inden-5-yl)amino)-2-oxoethyl)-1-(2-hydroxyethyl)-1H-pyrazole-5-carboxamide]",72 nM,3960 nM
"CNC(=O)C1(N2C[C@@H](C(C)C)NC2=O)Cc2ccc(NC(=O)C(NC(=O)c3ccnn3C)C3CCc4ccccc4C3)cc2C1 (stereo partly drawn) [Example 128, N-(2-((2-((R)-4-isopropyl-2-oxoimidazolidin-1-yl)-2-(methylcarbamoyl)-2,3-dihydro-1H-inden-5-yl)amino)-2-oxo-1-(1,2,3,4-tetrahydronaphthalen-2-yl)ethyl)-1-methyl-1H-pyrazole-5-carboxamide]",89.8 nM,277 nM
"CNC(=O)C1(N2C[C@@H](C(C)C)NC2=O)Cc2ccc(NC(=O)[C@@H](NC(=O)c3ccnn3C3CC3)C3CCCCC3)cc2C1 (stereo partly drawn) [Example 129, N-((1S)-1-cyclohexyl-2-((2-((R)-4-isopropyl-2-oxoimidazolidin-1-yl)-2-(methylcarbamoyl)-2,3-dihydro-1H-inden-5-yl)amino)-2-oxoethyl)-1-cyclopropyl-1H-pyrazole-5-carboxamide]",44 nM,119 nM
"CNC(=O)C1(N2CC3(CC3)CNC2=O)Cc2ccc(NC(=O)[C@@H](NC(=O)c3cc(C#N)cn3C)C3CCCCC3)cc2C1 (stereo partly drawn) [Example 130, 4-cyano-N-((1S)-1-cyclohexyl-2-((2-(methylcarbamoyl)-2-(6-oxo-5,7-diazaspiro[2.5]octan-5-yl)-2,3-dihydro-1H-inden-5-yl)amino)-2-oxoethyl)-1-methyl-1H-pyrrole-2-carboxamide]",19 nM,59.6 nM
"CNC(=O)C1(N2CC3(CC3)CNC2=O)Cc2ccc(NC(=O)[C@@H](NC(=O)c3ccc(C#N)n3C)C3CCCCC3)cc2C1 (stereo partly drawn) [Example 131, 5-cyano-N-((1S)-1-cyclohexyl-2-((2-(methylcarbamoyl)-2-(6-oxo-5,7-diazaspiro[2.5]octan-5-yl)-2,3-dihydro-1H-inden-5-yl)amino)-2-oxoethyl)-1-methyl-1H-pyrrole-2-carboxamide]",5.5 nM,14.9 nM
